From patent US9499472B2, “Aspartylamide inhibitors of excitatory amino acid transporters” (priority 2012, dated 2016)
Like-named read-outs stand apart in the source and are kept apart here.

What was measured:
EAAT2 [1] = target: T1, EAAT2 (Rattus norvegicus, UniProt P31596); experiment: tracer PET brain imaging and quantitative EAAT2 detection in rat; format: in vivo, rat (Sprague-Dawley); settings: 5 mg/Kg dose 10 minutes before tracer 2, all CNS ROIs, all times post-injection
T1 construct: from tissue; host or cells: live male Sprague-Dawley rat brain and spinal cord (in vivo PET)
T1 sequence (P31596 whole entry): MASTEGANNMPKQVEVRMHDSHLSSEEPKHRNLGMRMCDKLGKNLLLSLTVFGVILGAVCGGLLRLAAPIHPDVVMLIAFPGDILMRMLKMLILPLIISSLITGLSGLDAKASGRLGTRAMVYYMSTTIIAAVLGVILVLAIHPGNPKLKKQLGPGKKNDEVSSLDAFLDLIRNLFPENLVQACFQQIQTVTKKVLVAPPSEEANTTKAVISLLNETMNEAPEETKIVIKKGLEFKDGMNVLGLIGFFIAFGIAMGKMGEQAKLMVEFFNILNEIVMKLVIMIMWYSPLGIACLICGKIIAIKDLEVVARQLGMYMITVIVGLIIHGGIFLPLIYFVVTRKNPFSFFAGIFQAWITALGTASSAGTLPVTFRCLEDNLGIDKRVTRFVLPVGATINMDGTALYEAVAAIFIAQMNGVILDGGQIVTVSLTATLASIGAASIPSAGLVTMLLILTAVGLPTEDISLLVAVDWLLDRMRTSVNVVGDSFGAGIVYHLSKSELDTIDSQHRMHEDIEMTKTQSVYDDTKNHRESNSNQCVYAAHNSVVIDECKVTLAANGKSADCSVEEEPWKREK
Experimental: As an example of the tracer compound of the invention, rodent (rat) quantitative in vivo PET imaging trials are presented employing the tracer compound 2 of Example VI. The in vivo PET imaging was performed in parallel with magnetic resonance (MR) and computed axial tomography (CAT, CT) imaging methods, in which the latter two imaging methods afforded anatomical tissue information for co-registration to the acquired tracer quantitative PET data. […] Two rodent imaging trials (A-B) were performed employing two age-matched male Sprague-Dawley subjects. The age of the subjects were nearly identical to those described in the most recent rat (Sprague-Dawley, amongst others) stereotaxic brain atlas (Paxinos et al., “[…],” Academic Press: Burlington, Mass. (2007))
providing high confidence levels for identification and definition of explicit brain cerebral fine tissue structures as regions of interest (ROIs) for quantitative analysis, and as a function of three-dimensional (3D) co-registration of cerebral soft tissue identification by MR scan analysis and landmark anatomical features from CAT data.
The PET data were acquired with a Siemens Inveon microPET scanner (ca. 1.5 mm spatial resolution). Rodent subject tail vein tracer 2 injection volumes (Table 1) used the tracer 2 dose formulation described in Example VI. […]

[2] = brain penetration and metabolism in live mice, LC/MS-MS of compound 6 in brain and plasma; format: in vivo, C57BL/6 mice; settings: for levels of compound 6 (hydrolyzed compound 1) per gram brain tissue: mouse, 10 mg/Kg tail vein injection, all time points 1-90 min, ester vs acid administered
Experimental: A series of separate experiments were performed with compounds 1 or 6 in groups of C57BL/6 mice (6-8 weeks old; Charles River, Wilmington, Mass.) as a function of dose and time, where concentrations of compound 6 in brain and plasma (nanogram of compound 6/g of brain tissue or blood) were measured by liquid chromatography/mass spectrometry (LC/MS-MS) detection by literature methods (Chernet et al., Life Sci. 78:340-346 (2005)). In general, doses of compounds 1 and 6 were prepared at 1, 5 or 10 mg/Kg in a homogenous solution composed of 3% dimethyl sulfoxide and 97% […] pH 7.4. Doses (0.25 mL volume) were administered by tail vein injection to groups (n≧3) of mice. Mice were sacrificed at 1, 3 10, 30, 60, 90 and 100 minutes post-injection. For some groups of mice, brains were removed, weighed, homogenized (polytron, in SDS and water) extracted with acetonitrile and then centrifuged where the acetonitrile supernatant was collected. For other groups of mice, blood was collected ([…]), weighed, and then the samples were centrifuged where the supernatant plasma was collected and extracted with acetonitrile with and without 0.1% formic acid. To validate the extraction methods, other control (non-dosed) mice brains and plasma samples were spiked with various amounts (5-25,000 ng) of compound 6 and were processed in a similar fashion and then analyzed as described below. Respective acetonitrile extracts were diluted with methanol and 20 μL portions were then subjected to analytical reverse phase (C-18 analytical column, isocratic acetonitrile/water solvent) high performance liquid chromatography (HPLC), where the HPLC fractions were quantified using a mass spectrometer set to selectively monitor the mass-to-charge ratio of singly protonated compound 6 (C17H16FN2O3, exact mass: 315.11). In other analyses, a standard curve of compound 6 was constructed (5-25,000 nanogram mass range) and analyzed similarly. Quantities (nanograms, ng) of compound 6 from the dosed treated mouse brain and plasma samples were determined by correlation to the quantitative control spike method of detection (above) and also confirmed by interpolations against the compound 6 standard curve. Data was imported into Microsoft Excel and plotted as nanogram (ng) of detected hydrolyzed compound 1 (that is, compound 6/gram (g) brain tissue or plasma versus time (minutes). The data from the mouse experiments are shown in FIGS. 4 and 5.
Shown in FIG. 4 are the results from 10 mg/Kg administration of the ester compound 1 (shown as black bars) or the acid compound 6 (shown as grey bars) relative to the amounts of hydrolyzed compound 1 (that is, compound 6) per gram brain tissue at time points 1, 3, 10, 60 and 90 minutes post-injection. […]

[3] = tested on: panel of central nervous system protein binding sites defined in FIG. 8; experiment: competitive radioligand binding panel of central nervous system protein binding sites (FIG. 8); parameters: key: No Activity: no greater than or equal to 50% inhibition of binding; settings: 1 micromole assay concentration, duplicate
Experimental: In separate in vitro competitive pharmacological assays performed in duplicate, compounds 1 and 6 at 1 micromole concentrations were evaluated against the panel of central nervous system protein binding sites that are defined in FIG. 8. As noted in FIG. 8, the assays utilized specific established radioligands for the respective competition binding assays, and respective assay ligand standards that afforded respective pharmacological inhibition binding curves of half maximal inhibitory concentration (IC50) values. […] In other words, the concentrations of compounds 1 and 6 that would be required to inhibit the FIG. 8 radioligand bindings at their respective protein sites would have to be greater than 1 micromole concentration.

EAAT2 [4] = target: T2, EAAT2 (Homo sapiens, UniProt P43004); experiment: [3H]D-aspartate uptake by EAAT2 transiently expressed in C17.2 cells; format: cell-based
T2 construct: expressed in transfected cells; host or cells: C17.2 cells, transient transfection with FuGENE6
T2 sequence (P43004 whole entry): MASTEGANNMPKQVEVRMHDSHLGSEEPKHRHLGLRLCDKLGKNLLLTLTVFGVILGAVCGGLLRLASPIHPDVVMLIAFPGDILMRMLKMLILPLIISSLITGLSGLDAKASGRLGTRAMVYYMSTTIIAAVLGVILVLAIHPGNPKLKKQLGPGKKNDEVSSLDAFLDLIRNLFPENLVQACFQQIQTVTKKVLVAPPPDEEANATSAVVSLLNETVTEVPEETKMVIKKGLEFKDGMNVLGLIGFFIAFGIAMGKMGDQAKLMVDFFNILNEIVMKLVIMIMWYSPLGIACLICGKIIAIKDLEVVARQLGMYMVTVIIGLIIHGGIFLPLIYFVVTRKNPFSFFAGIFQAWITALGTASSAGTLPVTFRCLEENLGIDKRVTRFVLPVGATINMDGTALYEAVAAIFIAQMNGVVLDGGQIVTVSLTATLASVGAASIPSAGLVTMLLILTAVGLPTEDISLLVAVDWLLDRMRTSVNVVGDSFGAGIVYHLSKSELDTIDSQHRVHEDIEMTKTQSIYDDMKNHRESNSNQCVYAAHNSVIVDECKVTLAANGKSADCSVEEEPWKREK
Experimental: The excitatory amino acid transporter 2 (EAAT2) was transiently expressed in C17.2 cells using an AAV-based vector pAM-CAG-EAAT3-WPRE as described in the literature (Esslinger). Cells between passages 10-20 were seeded at 5×10^4 cells/well in 12 well plates and grown in complete DMEM supplemented with 10% fetal bovine serum, 1 mM sodium pyruvate, 0.1 mM nonessential amino acids solution. At 24 hours after plating, cells were transfected using FuGENE6 Transfection Reagent (Roche, Indianapolis, Ind.) in a ratio of 4 μL of FuGENE6 to 3 μg of purified plasmid DNA in accordance with manufacturers instructions. The cells were used in the transport assays 24 hours following transfection as described by Esslinger. Briefly, transfected C17.2 cells were grown in DMEM containing 10% FCS in a humid atmosphere of 5% CO2. Near-confluent cells (plated at 5×10^4 cells/well) were rinsed with a physiological buffer (138 mM NaCl, 11 mM D-glucose, 5.3 mM KCl, 0.4 mM KH2PO4, 0.3 mM Na2HPO4, 1.1 mM CaCl2, 0.7 mM MgSO4, 10 mM HEPES, pH 7.4) and allowed to pre-incubate at 37° C. for 5 minutes.
Three types of binding experiments were performed: a) single concentrations of compounds 1 or 6 were added simultaneously to the cell assay with 1 μM ^3H-D-aspartate, b) six or more concentrations of compound 6 were added simultaneously to the cell assay with 1 μM ^3H-D-aspartate; and c) six or more concentrations of compound 6 were pre-incubated with cells for 25 minutes, after which 1 μM ^3H-D-aspartate was added to the cell to initiate the assay. […] The cells were dissolved in 0.4 N NaOH for 24 hours and analyzed for radioactivity by liquid scintillation counting and protein by the BCA (Pierce) method. For each type of uptake assay experiment, they were conducted with at least 2 cell-containing tissue culture wells, with duplicate samples from each well analyzed for radioactivity. […] Initial studies confirmed that uptake quantified in this manner was linear with time and protein levels and also that uptake in un-transfected C17.2 cells was indistinguishable from background. […]

SMILES	reduction of tissue SUV signals of tracer 2 by pre-administration (challenge) (EAAT2 [1])	amount of compound 6 detected in mouse brain, 5 mg/Kg versus 1 mg/Kg ([2]; mouse brain, 3, 10 and 100 minutes post-injection)	amount of compound 6 detected in plasma, 5 mg/Kg versus 1 mg/Kg ([2]; mouse plasma, 3 and 10 minutes post-injection)	levels of compound 6 (hydrolyzed compound 1) per gram brain tissue [2]	inhibition of binding of FIG. 8 radioligands at their protein binding sites [3]	IC50 (EAAT2 [4]; IC50, EAAT2 interaction, first experimental in vitro conditions (single concentrations, simultaneous addition))	inhibition of 1 μM [3H]D-aspartate uptake by EAAT2 (EAAT2 [4]; concentrations up to 10 μM, added simultaneously with 3H-D-aspartate, 5 min)	inhibition of 1 μM [3H]D-aspartate uptake by EAAT2 (EAAT2 [4])
COC(=O)[C@@H](N)CC(=O)Nc1ccc2c(c1)Cc1cc(F)ccc1-2 [compound 1, (S)-Methyl 2-amino-4-(7-fluoro-9H-fluoren-2-ylamino)-4-oxobutanoate]	2-3 fold	dose amount dependence	dose amount dependence	higher levels	No Activity	> 10 µM	little or no inhibition	–
N[C@@H](CC(=O)Nc1ccc2c(c1)Cc1cc(F)ccc1-2)C(=O)O [compound 6, (S)-2-Amino-4-(7-fluoro-9H-fluoren-2-ylamino)-4-oxo-butanoic acid]	–	–	–	lower levels	No Activity	–	–	almost completely inhibited all uptake
